Here are results for 25 compounds from US10273217B2, “Triazole derivatives” (Hoffmann-La Roche Inc., priority 2015, dated 2019).

In one data set the target is T1, human EAAT3 (Homo sapiens, UniProt P43005).
T1 construct: expressed in transfected cells
T1 sequence (P43005 1-524): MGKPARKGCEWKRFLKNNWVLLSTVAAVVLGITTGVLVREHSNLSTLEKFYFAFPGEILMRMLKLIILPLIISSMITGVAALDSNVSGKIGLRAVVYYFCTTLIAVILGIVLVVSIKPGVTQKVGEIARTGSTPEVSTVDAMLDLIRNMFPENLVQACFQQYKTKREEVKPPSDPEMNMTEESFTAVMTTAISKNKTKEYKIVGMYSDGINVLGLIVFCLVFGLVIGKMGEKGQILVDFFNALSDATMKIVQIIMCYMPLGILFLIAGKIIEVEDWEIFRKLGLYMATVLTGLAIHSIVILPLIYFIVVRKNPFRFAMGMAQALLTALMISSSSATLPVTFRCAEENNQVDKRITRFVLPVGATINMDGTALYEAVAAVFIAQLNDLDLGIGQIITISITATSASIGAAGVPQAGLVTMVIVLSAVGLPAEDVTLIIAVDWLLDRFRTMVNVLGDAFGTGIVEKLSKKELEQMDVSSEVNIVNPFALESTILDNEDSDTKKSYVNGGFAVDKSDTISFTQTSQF
In words: FLIPR Membrane Potential (FMP) assay, antagonist potency at human EAAT3. In kind it is cell-based. As to conditions: HEK-293 cells stably expressing human EAAT3; L-glutamate as agonist at EC80; Kb from IC50 by Cheng-Prusoff equation. As to the method: The FLIPR Membrane Potential (FMP) Assay
HEK-293 cells stably expressing human EAAT3 were seeded at 55 000 cells/well in growth medium (DMEM glutamate free (Invitrogen 11960-044), 1% Pen Strep (10 ml/l GIBCO BRL N°15140-023), 10% FCS non dialysed heat inactivated, 5 mg/l puromycin) in poly-D-lysine treated 96-well black microtiter plates with clear-bottom. After 24 h, the growth medium was removed and 100 μl/well of Krebs buffer (140 mM NaCl, 4.7 mM KCl, 2.5 mM CaCl2, 1.2 mM MgCl2, 11 mM HEPES, 10 mM D-glucose, pH=7.4) added. The cells were then loaded by adding 100 μl/well FMP assay dye (FLIPR Membrane Potential assay reagent, Molecular Devices). The 96-well plates were then incubated at 37° C. for 1 h. The depolarization of the cells will cause more dye to enter in the cells, where it will bind to intracellular proteins and lipids and cause an increase in the fluorescence signal. Antagonist potency at human EAAT3 was determined by using L-glutamate as agonist at a concentration which gives 80% of the maximum response. The antagonists were applied 15 min before the application of the agonist L-glutamate. The assays were performed at room temperature and measurements done by using a Fluorometric Imaging Plate Reader (FLIPR, Molecular Devices) and filter #2. Responses were measured as peak increase in fluorescence minus basal (i.e. fluorescence without addition of L-glutamate). Kb was determined using the Cheng-Prusoff equation Kb=IC50/[1+(A/EC50)], where IC50 is the concentration of the antagonist producing 50% inhibition, A is the concentration of the agonist against which the IC50 is being determined (at EC80) and EC50 is the concentration of the agonist producing 50% […].

Compound `CC1(NC(=O)c2cc(-c3ccc(Cl)cc3)cc(-n3cnnc3CO)c2)CCS(=O)(=O)C1` (racemic) [Example 36, (RS)-3-(4-Chlorophenyl)-5-[3-(hydroxymethyl)-1,2,4-triazol-4-yl]-N-(3-methyl-1,1-dioxothiolan-3-yl)-benzamide] gave a melting point of 161.5 °C. Besides, at human EAAT3, the antagonist dissociation constant (Kb) amounted to 1570 nM.

As to `CCC(C)(C)NC(=O)c1cc(-c2ccc(F)cc2)cc(-n2cnnc2)c1` [Example 1, 3-(4-Fluorophenyl)-N-(2-methylbutan-2-yl)-5-(1,2,4-triazol-4-yl)-benzamide], the melting point turned out to be 212 °C. This compound returned a Kb at human EAAT3 of 88 nM.

In turn, `CC(C)(C)NC(=O)c1cc(-c2ccc(F)cc2)cc(-n2cnnc2)c1` [Example 2, N-tert-Butyl-3-(4-fluorophenyl)-5-(1,2,4-triazol-4-yl)-benzamide] came in with a melting point of 204 °C. For the same compound, the Kb at human EAAT3 came out at 290 nM.

As for `CC(C)(NC(=O)c1cc(-c2ccc(F)cc2)cc(-n2cnnc2)c1)C1CC1` [Example 3, N-(2-Cyclopropylpropan-2-yl)-3-(4-fluorophenyl)-5-(1,2,4-triazol-4-yl)-benzamide], the melting point turned out to be 135.5 °C. Besides, the Kb on human EAAT3 came to 390 nM.

For `CC(C)(NC(=O)c1cc(-c2ccc(F)cc2)cc(-n2cnnc2)c1)C(F)(F)F` [Example 4, 3-(4-Fluorophenyl)-5-(1,2,4-triazol-4-yl)-N-(1,1,1-trifluoro-2-methylpropan-2-yl)-benzamide], the melting point came to 147 °C. On human EAAT3, this compound registered an antagonist dissociation constant (Kb) of 250 nM.

`Cc1nncn1-c1cc(C(=O)NC(C)(C)C)cc(-c2ccc(F)cc2)c1` [Example 5, N-tert-Butyl-3-(4-fluorophenyl)-5-(3-methyl-1,2,4-triazol-4-yl)-benzamide] displayed a melting point of 235.5 °C. For the same compound, on human EAAT3, the antagonist equilibrium constant (Kb) turned out to be 160 nM.

`Cc1nncn1-c1cc(C(=O)NC(C)(C)C)cc(-c2ccc(Cl)cc2)c1` [Example 6, N-tert-Butyl-3-(4-chlorophenyl)-5-(3-methyl-1,2,4-triazol-4-yl)-benzamide] registered a melting point of 241 °C. Also, on human EAAT3, the antagonist dissociation constant (Kb) was 76 nM.

`Cc1nncn1-c1cc(C(=O)NC(C)(C)C)cc(-c2ccc(C(F)(F)F)cc2)c1` [Example 7, N-tert-Butyl-3-(3-methyl-1,2,4-triazol-4-yl)-5-[4-(trifluoromethyl)-phenyl]-benzamide] gave a melting point of 225.5 °C. Besides, the Kb on human EAAT3 turned out to be 130 nM.

In the case of `CC(C)(C)NC(=O)c1cc(-c2ccc(F)cc2)cc(-n2cnnc2C(C)(C)C)c1` [Example 8, N-tert-Butyl-3-(3-tert-butyl-1,2,4-triazol-4-yl)-5-(4-fluorophenyl)-benzamide], the melting point turned out to be 279 °C. Moreover, the Kb at human EAAT3 was 190 nM.

Turning to `CC(C)(C)NC(=O)c1cc(-c2ccc(Cl)cc2)cc(-n2cnnc2C(C)(C)C)c1` [Example 9, N-tert-Butyl-3-(3-tert-butyl-1,2,4-triazol-4-yl)-5-(4-chlorophenyl)-benzamide], the melting point was determined as 292.5 °C. The antagonist dissociation constant (Kb) at human EAAT3 is 180 nM.

Take `CC(C)(C)NC(=O)c1cc(-c2ccc(C(F)(F)F)cc2)cc(-n2cnnc2C(C)(C)C)c1` [Example 10, N-tert-Butyl-3-(3-tert-butyl-1,2,4-triazol-4-yl)-5-[4-(trifluoromethyl)-phenyl]-benzamide]: the melting point worked out at 280.5 °C. Besides, the Kb on human EAAT3 came out at 160 nM.

For the compound `CC(C)(C)c1nncn1-c1cc(C(=O)NC(C)(C)C2CC2)cc(-c2ccc(C(F)(F)F)cc2)c1` [Example 11, 3-(3-tert-Butyl-1,2,4-triazol-4-yl)-N-(2-cyclopropylpropan-2-yl)-5-[4-(trifluoromethyl)-phenyl]-benzamide], the melting point was determined as 242.5 °C. Besides, the Kb on human EAAT3 was 180 nM.

With `CC(C)(C)c1nncn1-c1cc(C(=O)NC(C)(C)C2CC2)cc(-c2ccc(F)cc2)c1` [Example 12, 3-(3-tert-Butyl-1,2,4-triazol-4-yl)-N-(2-cyclopropylpropan-2-yl)-5-(4-fluorophenyl)-benzamide], the melting point amounted to 111 °C. The compound further returned an antagonist equilibrium constant (Kb) on human EAAT3 of 150 nM.

`CC(C)(C)c1nncn1-c1cc(C(=O)NC(C)(C)C2CC2)cc(-c2ccc(Cl)cc2)c1` [Example 13, 3-(3-tert-Butyl-1,2,4-triazol-4-yl)-5-(4-chlorophenyl)-N-(2-cyclopropylpropan-2-yl)-benzamide] displayed a melting point of 136.5 °C. For the same compound, the Kb on human EAAT3 is 290 nM.

Turning to `CC(C)c1nncn1-c1cc(C(=O)NC(C)(C)C)cc(-c2ccc(F)cc2)c1` [Example 14, N-tert-Butyl-3-(4-fluorophenyl)-5-(3-propan-2-yl-1,2,4-triazol-4-yl)-benzamide], the melting point amounted to 240.5 °C. On human EAAT3, this compound came in with an antagonist equilibrium constant (Kb) of 75 nM.

On to `CC(C)c1nncn1-c1cc(C(=O)NC(C)(C)C)cc(-c2ccc(Cl)cc2)c1` [Example 15, N-tert-Butyl-3-(4-chlorophenyl)-5-(3-propan-2-yl-1,2,4-triazol-4-yl)-benzamide], for which the melting point is 239.5 °C. The compound also gave an antagonist dissociation constant (Kb) on human EAAT3 of 75 nM.

Consider `CC(C)c1nncn1-c1cc(C(=O)NC(C)(C)C2CC2)cc(-c2ccc(F)cc2)c1` [Example 16, N-(2-Cyclopropylpropan-2-yl)-3-(4-fluorophenyl)-5-(3-propan-2-yl-1,2,4-triazol-4-yl)-benzamide], for which the melting point worked out at 101 °C. Moreover, the Kb on human EAAT3 was determined as 100 nM.

`CC(C)c1nncn1-c1cc(C(=O)NC(C)(C)C2CC2)cc(-c2ccc(Cl)cc2)c1` [Example 17, 3-(4-Chlorophenyl)-N-(2-cyclopropyl-propan-2-yl)-5-(3-propan-2-yl-1,2,4-triazol-4-yl)-benzamide] showed a melting point of 105 °C. Besides, the Kb on human EAAT3 came out at 190 nM.

As for `CC(C)c1nncn1-c1cc(C(=O)NC(C)(C)C)cc(-c2ccc(C(F)(F)F)cc2)c1` [Example 18, N-tert-Butyl-3-(3-propan-2-yl-1,2,4-triazol-4-yl)-5-[4-(trifluoromethyl)-phenyl]-benzamide], the melting point was found to be 126 °C. In addition, at human EAAT3, the Kb was 130 nM.

Take `CC(C)c1nncn1-c1cc(C(=O)NC(C)(C)C2CC2)cc(-c2ccc(C(F)(F)F)cc2)c1` [Example 19, N-(2-Cyclopropyl-propan-2-yl)-3-(3-propan-2-yl-1,2,4-triazol-4-yl)-5-[4-(trifluoromethyl)-phenyl]-benzamide]: the melting point was determined as 100 °C. Besides, the antagonist dissociation constant (Kb) on human EAAT3 was 220 nM.

As for `CC(C)c1nncn1-c1cc(C(=O)NC(C)(C)CO)cc(-c2ccc(F)cc2)c1` [Example 20, 3-(4-Fluorophenyl)-N-(1-hydroxy-2-methylpropan-2-yl)-5-(3-propan-2-yl-1,2,4-triazol-4-yl)-benzamide], the melting point stood at 171.5 °C. The compound also displayed an antagonist equilibrium constant (Kb) at human EAAT3 of 390 nM.

In turn, `CC(C)c1nncn1-c1cc(C(=O)NC(C)(C)CO)cc(-c2ccc(Cl)cc2)c1` [Example 21, 3-(4-Chlorophenyl)-N-(1-hydroxy-2-methylpropan-2-yl)-5-(3-propan-2-yl-1,2,4-triazol-4-yl)-benzamide] returned a melting point of 180 °C. Moreover, the Kb on human EAAT3 is 230 nM.

For `CC(C)c1nncn1-c1cc(C(=O)NC(C)(C)CO)cc(-c2ccc(C(F)(F)F)cc2)c1` [Example 22, N-(1-hydroxy-2-methylpropan-2-yl)-3-(3-propan-2-yl-1,2,4-triazol-4-yl)-5-[4-(trifluoromethyl)-phenyl]-benzamide], the melting point came to 214 °C. The compound further had an antagonist equilibrium constant (Kb) at human EAAT3 of 330 nM.

In turn, `CCC(C)(C)NC(=O)c1cc(-c2ccc(C(F)(F)F)cc2)cc(-n2cnnc2C(C)C)c1` [Example 23, N-(2-Methylbutan-2-yl)-3-(3-propan-2-yl-1,2,4-triazol-4-yl)-5-[4-(trifluoromethyl)-phenyl]-benzamide] yielded a melting point of 104 °C. This compound had an antagonist equilibrium constant (Kb) on human EAAT3 of 94 nM.

As for `CCC(C)(C)NC(=O)c1cc(-c2ccc(F)cc2)cc(-n2cnnc2C(C)C)c1` [Example 24, 3-(4-Fluorophenyl)-N-(2-methylbutan-2-yl)-5-(3-propan-2-yl-1,2,4-triazol-4-yl)-benzamide], the melting point is 95 °C. At human EAAT3, the Kb was 54 nM.

The Kb is the affinity of an antagonist, worked out from how it opposes an agonist. Broadly, the melting point is the temperature, or range, at which the solid turns liquid.
